Tests used:
Format in all cases: physicochemical
[1] = Competitive slurry experiments among anhydrates (IPA/IPAc); settings: at RT and 50° C., IPA/IPAc slurries
Protocol: Competitive slurry experiments were performed in IPA/IPAc at RT/50° C. between anhydrates Form A of compound 1 and Form D of compound 1. Form A of compound 1 was added into each solvent to form a slurry at RT or 50° C. and was stirred for 2 h. The slurries were then filtered to obtain saturated solution. Around 10 mg each of Form A of compound 1 and Form D of compound 1 were added into each solution to form a mixed slurry at RT or 50° C. […] The formation of Form H^A of compound 1 is postulated to be caused by residual water in the solvents or due to ambient humidity (˜35% humidity during slurry experiments).

[2] = Slurry experiments in SGF; settings: 37° C., 500 rpm
Protocol: About 200 mg of sodium chloride and about 100 mg Triton X-100 was weighted into a 100-mL volumetric flask. About 100 mL of purified water was added to the flask and the solution was sonicated until all solids were completely dissolved. 1 M HCl was added to adjust the pH to 1.8 and the solution was mixed well and the pH was checked with a pH meter.
Competitive slurry experiments were performed for Forms A, H^A, H^B, C and D in SGF. About 10 mg of each form was added into separate HPLC vials followed by addition of 1.0 mL SGF in order to form slurries. The slurries were heated to 37° C. and stirred at 500 rpm. After 2 h or 24 h, the samples were centrifuged and the solids were collected for XRPD testing.

[3] = Variable temperature XRPD of Form D; settings: heating to 150° C. or cooling to 30° C. under N2 purge
Protocol: FIG. 2D depicts a variable temperature XRPD of Form D of compound 1. The variable temperature experiment was conducted to further investigate the weight loss observed in the TGA curve.

## Cc1ccc(-c2noc([C@H]3C[C@@H]3F)n2)cc1NC(=O)c1cnc2ccccn12 [Form D, N-(5-(5-((1R,2S)-2-fluorocyclopropyl)-1,2,4-oxadiazol-3-yl)-2-methylphenyl)imidazo[1,2-a]pyridine-3-carboxamide]
[1]
  relative thermodynamic stability: thermodynamically more stable than Form A
[2]; 2 h
  XRPD at 2 h: transformed to Form C
[2]; 24 h
  XRPD at 24 h: a mixture of Form C and an HCl salt form
[3]
  form change in variable temperature XRPD: no form change
